Where two headings read alike, the source gives them in different places.
What was measured:
[1] = Plasma pharmacokinetics of daptomycin in patients with severe burn injuries (LC-MS/MS, DAS 2.0); format: in vivo, human; conditions: for half-life: read-out: t(h)½ (converted)
Experimental: Multiple-dose medication treatment means that daptomycin was administered to burn injury patients as one injection every day of either the standard dose or a high dose. […] During intravenous infusion, vigorous agitation or shaking during drug dissolution was not permitted, thus preventing the formation of gas bubbles. […] The samples were centrifuged and stored at −80°C until required for analysis. PK evaluation was performed by measuring the daptomycin levels in blood samples, using liquid chromatography–mass spectrometry/mass spectrometry (LC-MS/MS) (Waters Micromass Quattro Micro API LC-MS/MS). Chromatographic separation was performed at 35°C using a RP-C18 (Welch Ultimate, 3.0 mm × 150 mm) analytical column. […] PK parameters were calculated using DAS 2.0. […] The maximum plasma concentration (Cmax) and the time at which it occurred (Tmax) were determined directly from the measured plasma concentration–time without interpolation. […] The total body clearance (CL) was obtained from dose/AUC0–∞. The volume of distribution (Vd) was calculated using the equation CL/Ke.

[2] = Hepatorenal function index of patients after daptomycin medication; conditions: 12 mg/kg/d, average ± SD n = 7, patients received supplemental plasma albumin
Experimental: All statistical analyses were conducted using SAS™ 9.3 software (Cary, NC) and a P value <.05 was considered to be statistically significant.

[3] = Creatine phosphokinase levels and adverse events during daptomycin treatment; format: in vivo, human
Excerpt: The level returned to a normal value without discontinuation of daptomycin treatment. There were no significant CPK differences in the indicated time points between the groups (Table 8).

[4] = patient 1, 12 mg/kg/d iv, multiple dose
[5] = patient 1, 12 mg/kg/d iv, single dose
[6] = patient 2, 12 mg/kg/d iv, multiple dose
[7] = patient 2, 12 mg/kg/d iv, single dose
[8] = patient 3, 12 mg/kg/d iv, multiple dose
[9] = patient 3, 12 mg/kg/d iv, single dose
[10] = patient 4, 12 mg/kg/d iv, multiple dose
[11] = patient 4, 12 mg/kg/d iv, single dose
[12] = patient 5, 12 mg/kg/d iv, multiple dose
[13] = patient 5, 12 mg/kg/d iv, single dose
[14] = patient 6, 12 mg/kg/d iv, multiple dose
[15] = patient 6, 12 mg/kg/d iv, single dose
[16] = patient 7, 12 mg/kg/d iv, multiple dose
[17] = patient 7, 12 mg/kg/d iv, single dose
[18] = patient 8, 6 mg/kg/d iv, multiple dose
[19] = patient 8, 6 mg/kg/d iv, single dose
[20] = patient 9, 6 mg/kg/d iv, multiple dose
[21] = patient 9, 6 mg/kg/d iv, single dose
[22] = patient 10, 6 mg/kg/d iv, multiple dose
[23] = patient 10, 6 mg/kg/d iv, single dose

CCCCCCCCCC(=O)N[C@@H](Cc1c[nH]c2ccccc12)C(=O)N[C@H](CC(N)=O)C(=O)N[C@@H](CC(=O)O)C(=O)N[C@@H]1C(=O)NCC(=O)N[C@@H](CCCN)C(=O)N[C@@H](CC(=O)O)C(=O)N[C@H](C)C(=O)N[C@@H](CC(=O)O)C(=O)NCC(=O)N[C@H](CO)C(=O)N[C@@H]([C@H](C)CC(=O)O)C(=O)N[C@@H](CC(=O)c2ccccc2N)C(=O)O[C@@H]1C [daptomycin]
CL ([1]; 6 mg/kg/d iv, multiple dose (day 6), average ± SD n = 3, SD): 0.412 ± 0.197 mL/min/kg
V d ([1]; 12 mg/kg/d iv, multiple dose (day 6), average ± SD n = 7, SD): 0.24 ± 0.11 L/kg
Tmax ([1]; human, in vivo, iv, 6 mg/kg): ~2 h
half-life ([1]; human, in vivo, iv, 6 mg/kg/d, 6 mg/kg/d iv, multiple dose (day 6), average ± SD n = 3, SD): 6.47 ± 1.34 h
half-life ([1]; human, in vivo, iv, 6 mg/kg/d, 6 mg/kg/d iv, single dose, average ± SD n = 3, SD): 5.64 ± 1 h
clearance ([1]; human, in vivo, iv, 12 mg/kg/d, 12 mg/kg/d iv, single dose, average ± SD n = 7, SD, read-out: CL (converted)): 0.375 mL/min/kg
half-life ([1]; human, in vivo, iv, 12 mg/kg/d, 12 mg/kg/d iv, single dose, average ± SD n = 7, SD): 7.4 ± 2.5 h
V d ([1]; human, in vivo, iv, V d, SD): 0.24 ± 0.1 L/kg
V d ([1]; human, in vivo, iv, SD): 0.19 ± 0.1 L/kg
clearance ([1]; human, in vivo, iv, SD): 0.403 mL/min/kg
AUC(0-t) ([1]; human, in vivo, 6 mg/kg/d iv, single dose, average ± SD n = 3, SD, read-out: AUC0–24): 255 ± 51.6 µg·h/mL
clearance ([1]; human, in vivo, 12 mg/kg/d iv, multiple dose (day 6), average ± SD n = 7, SD, read-out: CL (converted)): 0.33 mL/min/kg
t(h)½ ([1]; multiple doses, independent of the dose received (all patients)): 8.10 ± 1.91 h
AUC0–24 [1, 4]: 588.2 µg·h/mL
CL [1, 4]: 0.34 mL/min/kg
V d [1, 4]: 0.26 L/kg
t(h)½ [1, 4]: 8.8 h
AUC0–24 [1, 5]: 486.9 µg·h/mL
CL [1, 5]: 0.365 mL/min/kg
V d [1, 5]: 0.26 L/kg
AUC0–24 [1, 6]: 679.0 µg·h/mL
CL [1, 6]: 0.2945 mL/min/kg
V d [1, 6]: 0.22 L/kg
t(h)½ [1, 6]: 8.5 h
AUC0–24 [1, 7]: 511.2 µg·h/mL
CL [1, 7]: 0.36 mL/min/kg
V d [1, 7]: 0.21 L/kg
t(h)½ [1, 7]: 0.5 h
AUC0–24 [1, 8]: 580.7 µg·h/mL
CL [1, 8]: 0.3443 mL/min/kg
V d [1, 8]: 0.20 L/kg
t(h)½ [1, 8]: 6.7 h
AUC0–24 [1, 9]: 426.7 µg·h/mL
CL [1, 9]: 0.423 mL/min/kg
V d [1, 9]: 0.25 L/kg
t(h)½ [1, 9]: 0.5 h
AUC0–24 [1, 10]: 709.6 µg·h/mL
CL [1, 10]: 0.2818 mL/min/kg
V d [1, 10]: 0.16 L/kg
t(h)½ [1, 10]: 6.6 h
AUC0–24 [1, 11]: 477.6 µg·h/mL
CL [1, 11]: 0.388 mL/min/kg
V d [1, 11]: 0.29 L/kg
t(h)½ [1, 11]: 0.5 h
AUC0–24 [1, 12]: 987.6 µg·h/mL
CL [1, 12]: 0.2025 mL/min/kg
V d [1, 12]: 0.10 L/kg
t(h)½ [1, 12]: 5.7 h
AUC0–24 [1, 13]: 809.9 µg·h/mL
CL [1, 13]: 0.235 mL/min/kg
V d [1, 13]: 0.10 L/kg
t(h)½ [1, 13]: 1.5 h
AUC0–24 [1, 14]: 489.1 µg·h/mL
CL [1, 14]: 0.4088 mL/min/kg
V d [1, 14]: 0.32 L/kg
t(h)½ [1, 14]: 9.1 h
AUC0–24 [1, 15]: 439.4 µg·h/mL
CL [1, 15]: 0.445 mL/min/kg
V d [1, 15]: 0.15 L/kg
t(h)½ [1, 15]: 0.5 h
AUC0–24 [1, 16]: 456.2 µg·h/mL
CL [1, 16]: 0.4383 mL/min/kg
V d [1, 16]: 0.43 L/kg
t(h)½ [1, 16]: 11.3 h
AUC0–24 [1, 17]: 399.0 µg·h/mL
CL [1, 17]: 0.405 mL/min/kg
V d [1, 17]: 0.41 L/kg
t(h)½ [1, 17]: 0.5 h
AUC0–24 [1, 18]: 394.7 µg·h/mL
CL [1, 18]: 0.2928 mL/min/kg
V d [1, 18]: 0.15 L/kg
t(h)½ [1, 18]: 6.093 h
AUC0–24 [1, 19]: 273.7 µg·h/mL
CL [1, 19]: 0.3653 mL/min/kg
V d [1, 19]: 0.14 L/kg
t(h)½ [1, 19]: 4.97 h
AUC0–24 [1, 20]: 249.5 µg·h/mL
CL [1, 20]: 0.6387 mL/min/kg
V d [1, 20]: 0.44 L/kg
t(h)½ [1, 20]: 7.958 h
AUC0–24 [1, 21]: 197.0 µg·h/mL
CL [1, 21]: 0.5075 mL/min/kg
V d [1, 21]: 0.27 L/kg
t(h)½ [1, 21]: 6.737 h
AUC0–24 [1, 22]: 330.3 µg·h/mL
CL [1, 22]: 0.3027 mL/min/kg
V d [1, 22]: 0.14 L/kg
t(h)½ [1, 22]: 5.349 h
AUC0–24 [1, 23]: 295.2 µg·h/mL
CL [1, 23]: 0.3387 mL/min/kg
V d [1, 23]: 0.15 L/kg
t(h)½ [1, 23]: 5.377 h
Alb after daptomycin treatment (7 days) [2]: 40.5 ± 4.6 g/L
serious adverse events or treatment discontinuations ([3]; 12 mg/kg/d iv once daily, entire study period): no serious adverse events or treatment discontinuations
CPK adverse reaction ([3]; patient no. 3, high-dose, day 3, returned to normal without discontinuation): transient increase of CPK
serious adverse events and nonserious AEs leading to discontinuation ([3]; whole study, 6 or 12 mg/kg/d for 7 to 14 days, 10 patients): No serious adverse events

— PMC7195552 (Journal of Burn Care & Research: Official Publication of …, 2020)
